This passage reports Ki results from patent US7947718B2, “Isoxazole compounds as histamine H3 modulators” (Janssen Pharmaceutica NV, priority 2004, dated 2011).

The structures appear in SMILES notation.

This assay has as its target T1, human histamine H3 receptor (Homo sapiens, UniProt Q9Y5N1).
T1 construct: expressed in transfected cells; membranes were used
Kind of assay: [3H]-N-Methylhistamine binding. Particulars: membranes of H3 receptor-expressing SK-N-MC cells; 0.8 nM [3H]-N-methylhistamine, 60 min at 25° C. The procedure:
Cells were grown to about 70% to 80% confluence and removed from the plate with trypsin and pelleted in a clinical centrifuge. […] One μg supercoiled H3 receptor cDNA was added to the cells and mixed gently. The voltage for the electroporation was set at 0.25 kV and the capacitance was set at 960 μF. After electroporation the cells were diluted with 10 mL of complete media and were plated onto four 10 cm dishes at the following ratios: 1:20, 1:10, 1:5, and 1:2. […] Colonies that survived selection were grown and tested. SK-N-MC cells were used because they give efficient coupling for inhibition of adenylate cyclase. The clones that gave the most robust inhibition of adenylate cyclase in response to histamine were used for further study.
Cell pellets from histamine H3 receptor-expressing SK-N-MC cells were homogenized in 50 mM TrisHCl/0.5 mM EDTA. Supernatants from an 800 g spin were collected and were recentrifuged at 30,000 g for 30 min. Pellets were re-homogenized in 50 mM Tris/5 mM EDTA (pH 7.4). Membranes were incubated with 0.8 nM [^3H]-N-methylhistamine plus/minus test compounds for 60 min at 25° C. and were harvested by rapid filtration over GF/C glass fiber filters (pretreated with 0.3% polyethylenimine) followed by four washes with buffer. Filters were added to 5 mL of scintillation cocktail, and the signal was then counted on a liquid scintillation counter.

T1 sequence (Q9Y5N1 whole entry): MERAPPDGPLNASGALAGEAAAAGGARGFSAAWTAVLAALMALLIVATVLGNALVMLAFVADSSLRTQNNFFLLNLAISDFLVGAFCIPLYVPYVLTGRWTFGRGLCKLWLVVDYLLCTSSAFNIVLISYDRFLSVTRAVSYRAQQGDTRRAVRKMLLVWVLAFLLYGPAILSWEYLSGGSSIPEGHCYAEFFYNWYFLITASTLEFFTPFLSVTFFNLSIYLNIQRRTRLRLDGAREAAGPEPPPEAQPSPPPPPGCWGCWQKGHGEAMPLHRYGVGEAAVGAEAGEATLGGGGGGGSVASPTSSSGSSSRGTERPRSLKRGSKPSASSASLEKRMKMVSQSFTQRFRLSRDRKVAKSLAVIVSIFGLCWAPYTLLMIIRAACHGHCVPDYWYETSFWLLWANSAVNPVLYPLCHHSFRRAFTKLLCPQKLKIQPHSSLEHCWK

What is called Ki is the equilibrium dissociation constant of an inhibitor or competing ligand from its target. In turn, `C(#Cc1cccc(CN2CCOCC2)n1)CCN1CCCCC1` [Example 21, 4-[6-(4-Piperidin-1-yl-but-1-ynyl)-pyridin-2-ylmethyl]-morpholine] displayed a Ki of 38 nM. This lies in the double-digit nanomolar range.
For `CC(C)N1CCN(C(=O)c2ccc(NCCN3CCCCC3)nc2)CC1` [Example 9, (4-Isopropyl-piperazin-1-yl)-[6-(2-piperidin-1-yl-ethylamino)-pyridin-3-yl]-methanone] the value was 2 nM; for `C(#Cc1ccc(CN2CCCCC2)cn1)CCN1CCCCC1` [Example 8, 2-(4-Piperidin-1-yl-but-1-ynyl)-5-piperidin-1-ylmethyl-pyridine], 5 nM; for `CC(C)N1CCN(C(=O)c2ccnc(NCCN3CCCCC3)c2)CC1` [Example 16, (4-Isopropyl-piperazin-1-yl)-[2-(2-piperidin-1-yl-ethylamino)-pyridin-4-yl]-methanone], 6 nM.
For `CC(C)N1CCN(C(=O)c2cccnc2NCCN2CCCCC2)CC1` [Example 17, (4-Isopropyl-piperazin-1-yl)-[2-(2-piperidin-1-yl-ethylamino)-pyridin-3-yl]-methanone] the value was 141 nM.
With `C(#Cc1cncc(CN2CCOCC2)c1)CCN1CCCCC1` [Example 19, 4-[5-(4-Piperidin-1-yl-but-1-ynyl)-pyridin-3-ylmethyl]-morpholine], the affinity, expressed as Ki, was 15 nM.
Regarding `C(#Cc1cccc(CN2CCCCC2)n1)CCN1CCCCC1` [Example 20, 2-(4-Piperidin-1-yl-but-1-ynyl)-6-piperidin-1-ylmethyl-pyridine], the Ki amounted to 8 nM.
As for `CCOC(=O)N1CCN(c2ccc(C(=O)N3CCN(C(C)C)CC3)cn2)CC1` [Example 14, 4-[5-(4-Isopropyl-piperazine-1-carbonyl)-pyridin-2-yl]-piperazine-1-carboxylic acid ethyl ester], the affinity, expressed as Ki, was 79 nM.
As for `CC(C)N1CCN(C(=O)c2ccc(NCCN3CCOCC3)nc2)CC1` [Example 10, (4-Isopropyl-piperazin-1-yl)-[6-(2-morpholin-4-yl-ethylamino)-pyridin-3-yl]-methanone], the figure is 14 nM; as for `CCN(CC)CCN(C)c1ccc(C(=O)N2CCN(C(C)C)CC2)cn1` [Example 12, {6-[(2-Diethylamino-ethyl)-methyl-amino]-pyridin-3-yl}-(4-isopropyl-piperazin-1-yl)-methanone], 3 nM.
For `C(#Cc1cncc(CN2CCCCC2)c1)CCN1CCCCC1` [Example 18, 3-(4-Piperidin-1-yl-but-1-ynyl)-5-piperidin-1-ylmethyl-pyridine] the value was 2 nM; for `CC(C)N1CCN(C(=O)c2ccc(N3CCN(C(C)C)CC3)nc2)CC1` [Example 13, (4-Isopropyl-piperazin-1-yl)-[6-(4-isopropyl-piperazin-1-yl)-pyridin-3-yl]-methanone], 4 nM; for `CC(C)N1CCN(C(=O)c2ccc(N3CCN(C)CC3)nc2)CC1` [Example 15, (4-Isopropyl-piperazin-1-yl)-[6-(4-methyl-piperazin-1-yl)-pyridin-3-yl]-methanone], 3 nM.
The compound `COCCNCc1cccc(C#CCCN2CCCCC2)n1` [Example 22, (2-Methoxy-ethyl)-[6-(4-piperidin-1-yl-but-1-ynyl)-pyridin-2-ylmethyl]-amine] showed a Ki of 29 nM.
As for `CC(C)N1CCN(C(=O)c2ccc(NCCc3ccccn3)nc2)CC1` [Example 11, (4-Isopropyl-piperazin-1-yl)-[6-(2-pyridin-2-yl-ethylamino)-pyridin-3-yl]-methanone], the figure is 84 nM.
